The target of this test is T1, human VR1 (Homo sapiens, UniProt Q8NER1).
T1 construct: expressed in transfected cells
T1 sequence (Q8NER1 whole entry): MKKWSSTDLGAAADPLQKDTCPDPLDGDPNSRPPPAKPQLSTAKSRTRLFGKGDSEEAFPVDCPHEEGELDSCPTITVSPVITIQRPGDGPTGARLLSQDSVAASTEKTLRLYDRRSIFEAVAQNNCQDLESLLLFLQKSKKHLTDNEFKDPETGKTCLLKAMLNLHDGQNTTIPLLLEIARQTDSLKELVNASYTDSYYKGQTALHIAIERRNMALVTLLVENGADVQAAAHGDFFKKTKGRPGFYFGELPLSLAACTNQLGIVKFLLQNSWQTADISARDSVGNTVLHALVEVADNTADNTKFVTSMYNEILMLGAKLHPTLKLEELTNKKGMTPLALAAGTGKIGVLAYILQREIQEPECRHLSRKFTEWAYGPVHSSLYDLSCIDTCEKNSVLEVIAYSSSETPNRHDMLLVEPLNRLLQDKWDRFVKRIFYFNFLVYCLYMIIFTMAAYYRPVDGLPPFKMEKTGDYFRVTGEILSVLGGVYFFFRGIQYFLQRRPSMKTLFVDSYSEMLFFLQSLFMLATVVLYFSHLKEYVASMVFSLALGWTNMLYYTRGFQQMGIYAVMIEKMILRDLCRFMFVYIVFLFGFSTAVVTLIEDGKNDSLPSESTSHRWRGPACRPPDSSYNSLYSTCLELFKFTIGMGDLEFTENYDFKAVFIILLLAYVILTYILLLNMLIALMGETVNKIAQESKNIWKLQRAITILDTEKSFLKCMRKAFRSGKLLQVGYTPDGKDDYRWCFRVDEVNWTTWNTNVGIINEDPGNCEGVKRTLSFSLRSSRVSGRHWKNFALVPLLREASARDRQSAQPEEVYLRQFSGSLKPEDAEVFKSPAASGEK
The test can be described thus: Inhibition of Ca2+ entry in cells caused by proton, in rat glioma (C6BU1) cells stably expressing human VR1 (Fura 2 fluorescence). The format is cell-based. The settings on record: inhibition of proton-induced Ca2+ entry. As for the experimental part:
The assay for evaluation of VR1 inhibition by the inventive compounds will be described below. The assay was intended to evaluate in vitro inhibition of Ca^2+ entry in cells caused by proton, one of the VR1 agonists.
Rat glioma (C6BU1) cells stably expressing human VR1 were suspended in 20 mM MES buffer (at pH 6.8, contg. 20 mM 2-morpholinoethanesulfonate (referred to as MES hereinafter), 115 mM NaCl, 5 mM KCl, 1 mM MgCl2 and 14 mM D-glucose) to make a cell density of 1×10^6 cells/mL. A fluorescent dye, Fura 2-AMsolution (DojindoCorporate, Cat. No. 343-05401) was added to the suspension to make a 5 μM concentration thereof. Further, Pluronic F-127 (Wako Pure Chemical Industries, Ltd., Cat. No. P6866) was added to make a 0.1% content thereof. Then, the suspension was incubated at 37° C. for 30 min. The cells were harvested and washed three times with 20 mM MES buffer. The cells were suspended again to make a cell density of 5×10^5 cells/mL. A 500-μL portion of the suspension was taken with a cuvette (MC MEDICAL, INC., Cat. No. SSR3121), to which 10 μL of 20 mM MES buffer containing 250 mM CaCl2 was added to incorporate Ca^2+ into the cells. At the same time, 5 μL of a test compound solution (in a range of 100 μM to 10 nM in DMSO) was also added to provide a final concentration thereof in a range of 1 μM to 0.1 nM. Alternatively, 5 μL of DMSO was added as control to provide a final concentration of 1% DMSO. The suspension was set in an intracellular ionometer (CAF-110; JASCO) 10 min after those additions. The cells were stimulated with protons by addition of 60 μL of 20 mM MES buffer at pH 1.1 to the suspension to set its pH at 5.5. The activity of the test compound was determined as a difference between the minimum of fluorescence intensity before agonist stimulation and its maximum after the stimulation. The value of IC50 was derived from percentage of inhibition by the test compound compared with the control.
In the tables, the symbol “++” indicates an IC50 value less than 100 nM and the symbol “+” indicates an IC50 value of 100 nM to 1,000 nM inclusive.
One may read the IC50 as the concentration needed to halve the response being measured. In turn, `CC(O)c1cnc(N2CCOc3c(C(=O)Nc4ccc(C(F)(F)F)cc4)cccc32)c(Cl)c1` (single isomer, unassigned; (+)) [Example 2-12, (+)-N-(4-trifluoromethylphenyl)-4-{3-chloro-5-(1-hydroxyethyl)pyridin-2-yl}-3,4-dihydro-2H-benzo[1,4]oxazine-8-carboxamide] gave an IC50 of less than 100 nM.

`CC(O)c1cnc(N2CCOc3c(C(=O)Nc4ccc(OC(F)(F)F)cc4)cccc32)c(Cl)c1` (single isomer, unassigned; (+)) [Example 2-14, (+)-N-(4-trifluoromethoxyphenyl)-4-{3-chloro-5-(1-hydroxyethyl)pyridin-2-yl}-3,4-dihydro-2H-benzo[1,4]oxazine-8-carboxamide] returned an IC50 of less than 100 nM.

`CC(O)c1cnc(N2CCOc3c(C(=O)Nc4ccc(C(F)(F)F)cc4)cccc32)c(Cl)c1` (single isomer, unassigned; (-)) [Example 2-13, (−)-N-(4-trifluoromethylphenyl)-4-{3-chloro-5-(1-hydroxyethyl)pyridin-2-yl}-3,4-dihydro-2H-benzo[1,4]oxazine-8-carboxamide] showed an IC50 of less than 100 nM.

For `CC(O)c1cnc(N2CCOc3c(C(=O)Nc4ccc(OC(F)(F)F)cc4)cccc32)c(Cl)c1` (single isomer, unassigned; (-)) [Example 2-15, (−)-N-(4-trifluoromethoxyphenyl)-4-{3-chloro-5-(1-hydroxyethyl)pyridin-2-yl}-3,4-dihydro-2H-benzo[1,4]oxazine-8-carboxamide], the IC50 was less than 100 nM.

`CC(C)(C)c1ccc(NC(=O)c2cccc3c2OCCN3c2ncccc2Cl)cc1` [Example 1-001, N-(4-tert-butylphenyl)-4-(3-chloropyridin-2-yl)-3,4-dihydro-2H-benzo[1,4]oxazine-8-carboxamide] had an IC50 of less than 100 nM.

As to `CC1COc2c(C(=O)Nc3ccc(C(C)(C)C)cc3)cccc2N1c1ncccc1Cl` (stereo not drawn) [Example 1-003, N-(4-tert-butylphenyl)-4-(3-chloropyridin-2-yl)-3-methyl-3,4-dihydro-2H-benzo[1,4]oxazine-8-carboxamide], the IC50 is less than 100 nM.

Turning to `CN1CCN(c2ncccc2Cl)c2cccc(C(=O)Nc3ccc(C(C)(C)C)cc3)c21` [Example 1-004, N-(4-tert-butylphenyl)-1-(3-chloropyridin-2-yl)-4-methyl-1,2,3,4-tetrahydroquinoxaline-5-carboxamide], the IC50 is less than 100 nM.

Take `CC(C)(C)c1ccc(NC(=O)c2cccc3c2OCCCN3c2ncccc2Cl)cc1` [Example 1-005, N-(4-tert-butylphenyl)-9-(3-chloropyridin-2-yl)-6,7,8,9-tetrahydro-5-oxa-9-aza-benzocycloheptene-4-carboxamide]: the IC50 was less than 100 nM.

`O=C(Nc1ccc(Cl)cc1)c1cccc2c1OCCN2c1ncccc1Cl` [Example 1-006] registered an IC50 of less than 100 nM.

Take `CC(C)Oc1ccc(NC(=O)c2cccc3c2OCCN3c2ncccc2Cl)cc1` [Example 1-007]: the IC50 was less than 100 nM.

`Cc1ccc(NC(=O)c2cccc3c2OCCN3c2ncccc2Cl)cc1` [Example 1-009] showed an IC50 of less than 100 nM.

Regarding `CC(C)COc1ccc(NC(=O)c2cccc3c2OCCN3c2ncccc2Cl)cc1` [Example 1-011], the IC50 is less than 100 nM.

`CC(C)(C)c1ccc(NC(=O)c2cccc3c2OCCN3c2ccccn2)cc1` [Example 1-016]: the IC50 was less than 100 nM.

In turn, `CC(C)(C)c1ccc(NC(=O)c2cccc3c2OCCN3c2ncccc2C(F)(F)F)cc1` [Example 1-017] yielded an IC50 of less than 100 nM.

Turning to `CC1(C)CN(c2ncccc2Cl)c2cccc(C(=O)Nc3ccc(C(C)(C)C)cc3)c2O1` [Example 1-018], the IC50 fell in the range of 100 to 1000 nM.

`CC1CN(c2ncccc2Cl)c2cccc(C(=O)Nc3ccc(C(C)(C)C)cc3)c2O1` (stereo not drawn) [Example 1-019] displayed an IC50 of 100 to 1000 nM.

`CC(C)(C)c1ccc(NC(=O)c2cc(Cl)cc3c2OCCN3c2ncccc2Cl)cc1` [Example 1-020]: the IC50 is less than 100 nM.

`O=C(Nc1ccc(OC(F)(F)F)cc1)c1cccc2c1OCCN2c1ncccc1Cl` [Example 1-022]: the IC50 is less than 100 nM.

With `COc1ccc(NC(=O)c2cccc3c2OCCN3c2ncccc2Cl)cc1` [Example 1-023], the IC50 lay in the range of 100 to 1000 nM.

`O=C(Nc1ccc(Cl)c(C(F)(F)F)c1)c1cccc2c1OCCN2c1ncccc1Cl` [Example 1-025]: the IC50 was less than 100 nM.

Molecule `O=C(Nc1ccc(F)cc1)c1cccc2c1OCCN2c1ncccc1Cl` [Example 1-026] returned an IC50 of 100 to 1000 nM.

Molecule `O=C(Nc1cccc(C(F)(F)F)c1)c1cccc2c1OCCN2c1ncccc1Cl` [Example 1-027] displayed an IC50 of less than 100 nM.

`O=C(Nc1ccc(C(F)(F)F)cn1)c1cccc2c1OCCN2c1ncccc1Cl` [Example 1-029] came in with a 50% inhibitory concentration (IC50) of less than 100 nM.

`O=C(Nc1ccc(C(F)(F)F)nc1)c1cccc2c1OCCN2c1ncccc1Cl` [Example 1-030] registered an IC50 of less than 100 nM.

`CC(C)c1ccc(NC(=O)c2cccc3c2OCCN3c2ncccc2Cl)cc1` [Example 1-031] returned an IC50 of less than 100 nM.

With `O=C(Nc1ccc2cccnc2c1)c1cccc2c1OCCN2c1ncccc1Cl` [Example 1-032], the concentration for half-maximal inhibition (IC50) lay within 100 to 1000 nM.

Molecule `CN1CCCc2ccc(NC(=O)c3cccc4c3OCCN4c3ncccc3Cl)cc21` [Example 1-033] came in with an IC50 of less than 100 nM.

`COC(=O)c1ccc(NC(=O)c2cccc3c2OCCN3c2ncccc2Cl)cc1` [Example 1-034, 4-(3-chloropyridin-2-yl)-N-(methoxycarbonylphenyl)-3,4-dihydro-2H-benzo[1,4]oxazine-8-carboxamide] showed an IC50 of less than 100 nM.

On to `CC(=O)c1ccc(NC(=O)c2cccc3c2OCCN3c2ncccc2Cl)cc1` [Example 1-039, N-(4-acetylphenyl)-4-(3-chloropyridin-2-yl)-3,4-dihydro-2H-benzo[1,4]oxazine-8-carboxamide], for which the IC50 was in the range of 100 to 1000 nM.

Molecule `CCC(C)(O)c1ccc(NC(=O)c2cccc3c2OCCN3c2ncccc2Cl)cc1` (stereo not drawn) [Example 1-041, 4-(3-chloropyridin-2-yl)-N-[4-(1-hydroxy-1-methyl)propyl]phenyl-3,4-dihydro-2H-benzo[1,4]oxazine-8-carboxamide] had a half-inhibitory concentration (IC50) of 100 to 1000 nM.

For the molecule `CC(C)(C)ON1CCC(NC(=O)c2cccc3c2OCCN3c2ncccc2Cl)CC1` [Example 1-043], the IC50 lay within 100 to 1000 nM.

Turning to `CC(C)Oc1cccc(NC(=O)c2cccc3c2OCCN3c2ncccc2Cl)c1` [Example 1-044], the IC50 is less than 100 nM.

Turning to `CC(C)COc1cccc(NC(=O)c2cccc3c2OCCN3c2ncccc2Cl)c1` [Example 1-045], the IC50 is less than 100 nM.

`Cc1cccnc1N1CCOc2c(C(=O)Nc3ccc(C(C)(C)C)cc3)cccc21` [Example 1-047] had an IC50 of less than 100 nM.

In turn, `O=C(Nc1ccc(N2CCCCC2)cc1)c1cccc2c1OCCN2c1ncccc1Cl` [Example 1-048] showed an IC50 of less than 100 nM.

`CN(C)c1ccc(NC(=O)c2cccc3c2OCCN3c2ncccc2Cl)cc1` [Example 1-049]: the IC50 lay in the range of 100 to 1000 nM.

In turn, `O=C(Nc1ccc(N2CCOCC2)cc1)c1cccc2c1OCCN2c1ncccc1Cl` [Example 1-050] displayed an IC50 of 100 to 1000 nM.

The molecule `CC(C)Oc1ccc(NC(=O)c2cccc3c2OCCN3c2ncccc2Cl)c(F)c1` [Example 1-052] displayed an IC50 of less than 100 nM.

`O=C(Nc1ccc(F)c(C(F)(F)F)c1)c1cccc2c1OCCN2c1ncccc1Cl` [Example 1-053]: the IC50 was less than 100 nM.

The values above are taken from US8008292B2, “Condensed benzamide compounds and inhibitors of vanilloid receptor subtype 1 (VR1) activity” (Japan Tobacco Inc., priority 2004, dated 2011).
